Key:
[1] = test system: AChE-induced Aβ aggregation; set-up: method as in PMID 12527333; conditions: at 100 μM; cited from earlier work
AChE = test system: AChE; set-up: method as in PMID 15658850; conditions: read-out: anti-AChE activity, IC50; cited from earlier work
[2] = test system: AChE-induced Aβ aggregation; set-up: method as in PMID 15658850; conditions: cited from earlier work
mouse brain homogenate [3] = experiment: TBARS assay, spontaneous lipid peroxidation in mouse brain homogenate; conditions: read-out: Inhibition of Spontaneous Lipid Peroxidation in Mice Brain Homogenate, TBARS Assay, IC50
Method: (§1) The work was carried out in accordance with the EU Directive 2010/63/EU. Hybrid BDF1 mice (about 6 months old) were sacrificed by decapitation. Each brain was rapidly excised, frozen in liquid nitrogen, and stored at −80°C until use. The brains were thawed and homogenized using a Wisd WiseTis HG-15D homogenizer for 2 min in a buffer (0.01 M PBS, pH 7.4 or 0.1 M Tris-HCl, pH 7.4). Protein concentrations were determined by the Lowry method.
The procedure was performed in accordance with the method of Ohkawa et al. with minor modifications. Briefly, mouse brain homogenate (protein concentration 1 mg/mL) in PBS (0.1 M, pH 7.4) was incubated for 30 min at 37°C with tested conjugates, and the reaction was terminated by addition of 0.4 mL of 17% (w/v) trichloroacetic acid (Sigma-Aldrich). Following centrifugation for 20 min at 1300× g, 0.5 mL of 0.8% (w/v) of TBA (Sigma-Aldrich) was added to 1 mL of supernatant, heated for 30 min at 95°C and then cooled to RT. The optical density of the TBARS, which corresponds to the produced MDA, was measured at 532 nm against a blank using an Agilent Cary 60 UV-Vis spectrophotometer (Agilent, Santa Clara, CA, USA). The MDA concentration was calculated using an extinction coefficient of 1.56 × 10^5 M^−1cm^−1. Trolox and BHT were used as reference antioxidants. Compounds were dissolved in DMSO (Sigma-Aldrich) and tested in a concentration range 0.01–100 μM. All compounds were examined at least in triplicate.

mouse brain homogenate [4] = experiment: Luminol chemiluminescence assay in mouse brain homogenate (TBHP-initiated); conditions: compound concentration 20 µM; mice brain homogenate
Method: as §1
Luminol-dependent chemiluminescence produced by mouse brain homogenates was measured using a 1250 Luminometer (LKB Wallac, Turku, Finland) according to the assay by Di Meo et al. with minor modifications. The reaction mixture consisted of mouse brain homogenate (protein concentration 0.1 mg/mL) in 0.1 M Tris-HCl (Sigma-Aldrich), pH 7.4, luminol (Sigma-Aldrich) (0.05 mM), TBHP (Sigma-Aldrich) (0.073 M) and tested compounds at a concentration of 20 μM. This was placed in a light-proof luminometer chamber and the background reading was recorded. All measurements were carried out at 37°C. The gain control was set to give a reading of 10 mV using a built-in standard. The free radical content in mouse brain homogenate was evaluated by the change in the light sum (the area under the kinetic curve of luminescence intensity for the entire luminescence time). All compounds were examined at least in triplicate. The effects of tested compounds were measured as the percentage decrease in the light sum relative to the control (a sample with no compound added).

[5] = ABTS radical cation scavenging activity assay; conditions: 1 h incubation
Method: Radical scavenging activity of the compounds was assessed using the ABTS radical decolorization assay with some modifications. ABTS was purchased from Tokyo Chemical Industry Co., Ltd. (Tokyo, Japan), potassium persulfate (dipotassium peroxodisulfate), Trolox (6-hydroxy-2,5,7,8-tetramethychroman-2-carboxylic acid), and HPLC-grade ethanol were obtained from Sigma-Aldrich. Aqueous solutions were prepared using deionized water.
The solution of cation radical ABTS^•+ was produced by incubation of ABTS with potassium persulfate in deionized water for 12–16 h at room temperature in the dark. Radical scavenging capacity of the compounds was analyzed by mixing 10 μL of compound with 240 μL of ABTS^•+ working solution in ethanol (100 μM final concentration). The reaction was monitored for an hour with an interval of 5–10 min. Data are given for 1 h of incubation of compounds with ABTS^•+. The reduction in absorbance was measured spectrophotometrically at 734 nm using a xMark microplate UV/VIS microplate spectrophotometer (Bio-Rad, Hercules, CA, USA).
Ethanol blanks were run in each assay. Values were obtained from three replicates of each sample and three independent experiments. Standard antioxidants Trolox and BHT were used as reference compounds.
Antioxidant capacity as Trolox equivalent (TEAC) values was determined as the ratio between the slopes obtained from the linear correlation of the ABTS radical absorbance with the concentrations of tested compounds and Trolox. […] The compounds were tested in the concentration range of 0.1–100 µM.

Human erythrocyte AChE = target: T1, Human erythrocyte AChE (Homo sapiens, UniProt P22303); experiment: biochemical; conditions: mean ± SEM, n = 3; n.a. = not active; read-out: Human Erythrocyte AChE, IC50
T1 construct: AChE from human erythrocytes was used; purchased Sigma-Aldrich; host or cells: human erythrocytes
T1 sequence (P22303 32-617 isoform P22303-2 limits assumed): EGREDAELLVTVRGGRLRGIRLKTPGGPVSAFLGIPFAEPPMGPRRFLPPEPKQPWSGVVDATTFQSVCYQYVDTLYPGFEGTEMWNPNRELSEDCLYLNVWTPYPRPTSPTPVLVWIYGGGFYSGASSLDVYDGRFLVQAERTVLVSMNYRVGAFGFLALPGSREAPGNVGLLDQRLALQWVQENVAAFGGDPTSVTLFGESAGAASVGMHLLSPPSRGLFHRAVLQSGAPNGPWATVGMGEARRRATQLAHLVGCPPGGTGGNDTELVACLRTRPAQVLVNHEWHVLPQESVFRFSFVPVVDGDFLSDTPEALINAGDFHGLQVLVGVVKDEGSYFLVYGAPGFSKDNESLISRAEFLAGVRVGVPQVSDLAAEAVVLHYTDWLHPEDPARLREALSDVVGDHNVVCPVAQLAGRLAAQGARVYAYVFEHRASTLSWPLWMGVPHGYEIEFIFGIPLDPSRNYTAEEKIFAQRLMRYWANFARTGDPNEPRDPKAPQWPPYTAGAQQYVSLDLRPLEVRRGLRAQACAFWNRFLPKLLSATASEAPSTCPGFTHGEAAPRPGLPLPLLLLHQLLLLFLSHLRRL
Method: (§2) Measurements were performed with a FLUOStar Optima microplate reader (BMG Labtech, Ortenberg, Germany). Compounds were dissolved in DMSO, the incubation mixture contained 2% solvent.

Equine serum BChE = target: T2, Equine serum BChE (Equus caballus, UniProt P81908); experiment: biochemical
T2 construct: equine serum BChE; purchased Sigma-Aldrich; host or cells: equine serum
T2 sequence (P81908 whole entry): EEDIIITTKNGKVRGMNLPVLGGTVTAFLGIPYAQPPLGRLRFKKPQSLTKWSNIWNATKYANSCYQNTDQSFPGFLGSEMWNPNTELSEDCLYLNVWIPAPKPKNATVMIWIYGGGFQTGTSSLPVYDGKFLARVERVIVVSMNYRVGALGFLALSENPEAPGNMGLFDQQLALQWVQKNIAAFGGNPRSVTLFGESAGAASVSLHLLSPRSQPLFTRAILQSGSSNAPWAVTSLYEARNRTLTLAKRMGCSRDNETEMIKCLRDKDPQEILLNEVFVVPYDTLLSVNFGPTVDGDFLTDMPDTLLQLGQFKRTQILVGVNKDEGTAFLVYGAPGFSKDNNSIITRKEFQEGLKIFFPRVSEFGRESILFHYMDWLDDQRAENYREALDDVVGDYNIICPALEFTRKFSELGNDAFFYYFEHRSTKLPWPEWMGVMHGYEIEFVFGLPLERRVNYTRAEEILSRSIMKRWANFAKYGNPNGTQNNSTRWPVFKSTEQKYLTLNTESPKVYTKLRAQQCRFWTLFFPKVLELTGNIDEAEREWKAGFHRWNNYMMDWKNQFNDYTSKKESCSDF
Method: as §2

Porcine liver CES = experiment: In vitro CES inhibition, 4-NPA substrate; format: biochemical; conditions: compound concentration 20 µM; n.a. = not active
Method: as §2

[6] = FRAP (ferric reducing antioxidant power) assay; conditions: 20 µM, 1 h incubation; ratio of concentrations of Trolox and test compound with same effect
Method: The FRAP (ferric reducing antioxidant power) assay proposed by Benzie and Strain [80, 81] was modified to be performed in 96-well microplates. The FRAP reagent contained 2.5 mL of 10 mM TPTZ (2,4,6-tris(2-pyridyl)-s-triazine (Sigma-Aldrich) solution in 40 mM HCl, 2.5 mL of 20 mM FeCl3 (Sigma-Aldrich) in distilled water and 25 mL of 0.3 M acetate buffer (pH 3.6). In 96-well microplates, 10 µL aliquots of the substance under investigation (compounds 7, 8 or reference substance) dissolved in DMSO (0.5 mM) were placed in quadruplicate. The FRAP reagent (240 µL) freshly prepared and warmed to 37°C was added to three of these samples, while the same volume of acetate buffer was added to the fourth one (blank). Consequently, the concentration of the substance in a plate was 20 µM. The absorbance at 600 nm was monitored spectrophotometrically with a FLUOStar OPTIMA microplate reader at 37°C for an hour with an interval of 5–10 min. Data in Table 2 are given for 1 h of incubation of compounds with FRAP reagent. The absorbances of the blanks and those of the mixture of 240 µL FRAP reagent plus 10 µL DMSO were subtracted from the absorbances of the samples at each time interval to calculate the absorbance change. Standard antioxidants Trolox and BHT dissolved in DMSO and analyzed as described above were used as reference compounds. A calibration curve with linear formula y = 0.03x (R^2 = 0.998, p < 0.0001) was obtained for Trolox solution in DMSO in the range 2.5–100 µM and the results were expressed as FRAP units (the values calculated as the ratio of the concentrations of Trolox and the test compound resulting in the same effect.)

EeAChE PAS = target: T3, EeAChE PAS (Electrophorus electricus, UniProt O42275); format: binding; conditions: compound concentration 20 µM
T3 construct: Electric eel AChE (EeAChE, type VI-S, lyophilized powder); purchased Sigma-Aldrich type VI-S; host or cells: electric eel
T3 sequence (O42275 24-633): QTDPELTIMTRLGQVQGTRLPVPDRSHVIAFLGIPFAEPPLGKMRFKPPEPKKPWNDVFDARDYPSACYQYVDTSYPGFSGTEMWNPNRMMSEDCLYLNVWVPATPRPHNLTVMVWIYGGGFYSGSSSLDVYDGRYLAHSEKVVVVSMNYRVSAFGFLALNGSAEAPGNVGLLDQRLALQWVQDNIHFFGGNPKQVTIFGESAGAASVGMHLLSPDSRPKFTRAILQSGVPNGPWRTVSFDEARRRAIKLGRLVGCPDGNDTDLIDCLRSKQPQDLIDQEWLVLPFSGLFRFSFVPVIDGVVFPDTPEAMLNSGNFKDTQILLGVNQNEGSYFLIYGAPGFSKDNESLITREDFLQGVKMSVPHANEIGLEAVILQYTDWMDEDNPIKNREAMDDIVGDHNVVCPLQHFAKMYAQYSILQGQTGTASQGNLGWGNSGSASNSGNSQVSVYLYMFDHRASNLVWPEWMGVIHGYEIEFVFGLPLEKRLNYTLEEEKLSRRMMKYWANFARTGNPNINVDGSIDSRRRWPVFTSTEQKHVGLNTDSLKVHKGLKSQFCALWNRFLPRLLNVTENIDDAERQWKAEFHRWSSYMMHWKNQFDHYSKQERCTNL
Method: Electric eel AChE (EeAChE, type VI-S, lyophilized powder, Sigma-Aldrich, Saint Louis, MO, USA) was used owing to its high degree of purification, high activity, and lower cost compared to human AChE.
The blank contained propidium iodide of the same concentration in 1 mM Tris-HCl buffer pH 8.0. The measurements were carried out in triplicate on a FLUOStar Optima microplate reader, and the results were calculated by formula (1):% Displacement = 100 − (IFAChE+ Propidium + inhibitor / IFAChE + Propidium) × 100(1) where IFAChE + Propidium is the fluorescence intensity of the propidium associated with AChE in the absence of the test compound (taken as 100%), and IFAChE + Propidium + inhibitor is the fluorescence intensity of the propidium associated with AChE in the presence of the test compound.

## CC[N+](C)(CC)CCC[n+]1c(-c2ccccc2)c2cc(N)ccc2c2ccc(N)cc21 [Propidium, propidium]
[1]
  Decrease in AChE-induced Aβ aggregation: 82%

## O=C(CCCCC1CCSS1)NCCCNc1c2c(nc3cc(Cl)ccc13)CCCC2 (stereo not shown) [lipocrine]
AChE
  IC50: 0.000253 µM
[2]
  IC50: 45 µM

## CC(C)(C)c1cc(C=NCCNc2c3c(nc4ccccc24)CCCCCC3)cc(C(C)(C)C)c1O [Compound 7d, 2,6-Di-tert-butyl-4-{[2-(6,7,8,9,10,11-hexahydro-cycloocta[b]quinolin-12-ylamino)-ethylimino]-methyl}-phenol]
Mouse brain homogenate [3]
  IC50: 14.8 ± 1.3 µM
Mouse brain homogenate [4]
  Radical Scavenging Capacity in Luminol Chemiluminescence Assay, Luminescence Inhibition, %: 95.0 ± 0.2%
[5]
  IC50: 17.8 ± 1.7 µM
[5]; ratio of slopes test compound/Trolox
  ABTS^•+-Scavenging Activity, TEAC: 1.12 ± 0.05
Human erythrocyte AChE
  IC50: 45 ± 5.7 µM
Equine serum BChE; IC50 AChE / IC50 BChE
  Selectivity for BChE: 10.5
Equine serum BChE; mean ± SEM, n = 3, n.a. = not active, read-out: Equine Serum BChE, IC50
  IC50: 4.27 ± 0.26 µM
Porcine liver CES
  Porcine Liver CES, (%) inhibition: 20.4 ± 1.6%
[6]
  Ferric Reducing Antioxidant Power, FRAP Units: 0.57 ± 0.02
EeAChE PAS
  Displacement of Propidium from EeAChE PAS (%): 17.1 ± 1.8%
